# Tests used:
# [1] = biological target: P. haemolytica A1 glycoprotease (Mannheimia haemolytica, UniProt P36175); test: biochemical; conditions: for Inhibition of the glycoprotease by anions and acidic amino acids: millimolar concentrations; for Restoration of protease activity by addition of divalent metal ion: after EDTA treatment and dialysis of the enzyme; for Increase of activity by addition of divalent metal ion: native enzyme
# [2] = biological target: P. haemolytica A1 protease (Mannheimia haemolytica, UniProt P36175); assay type: biochemical; conditions: SDS-PAGE and Coomassie blue staining
# Chain of P. haemolytica A1 protease (P36175 whole entry, looked up): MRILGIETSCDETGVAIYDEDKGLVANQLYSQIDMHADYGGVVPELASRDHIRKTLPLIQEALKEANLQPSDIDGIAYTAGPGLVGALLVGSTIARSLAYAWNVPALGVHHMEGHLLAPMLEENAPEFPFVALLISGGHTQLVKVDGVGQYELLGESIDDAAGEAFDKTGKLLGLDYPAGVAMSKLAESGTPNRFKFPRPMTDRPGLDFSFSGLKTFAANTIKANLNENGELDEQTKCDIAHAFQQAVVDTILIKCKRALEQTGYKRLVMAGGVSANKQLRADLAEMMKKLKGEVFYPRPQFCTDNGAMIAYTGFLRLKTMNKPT
# [3] = system: P. haemolytica glycoprotease; test: Cleavage of cell surface antigens of surface-125I-iodinated KG1a cells, immunoprecipitation and SDS-PAGE; assay type: cell-based
# From the text: In our previous work, we have concentrated on the cleavage of human erythrocyte glycophorin A by the P. haemolytica glycoprotease Udoh et al. 1986. Univ. of Guelph; Abdullah et al. 1988. Proc. Canad. Fed. Biol. Socs.; Abdullah et al. 1990. Biochem. Soc. Trans. This substrate is well-characterized erythrocyte surface O-sialoglycoprotein and is readily available for biochemical analysis. However, it is clear that the physiological targets of this enzyme are not erthrocyte antigens but are probably O-sialoglycoproteins on the surfaces of leukocytes or endothelial cells. SDS-PAGE analysis of immunoprecipitations performed with specific monoclonal antibodies on lysates of surface-^125 I-iodinated KG1a cells, a primitive myeloid/T-lymphois stem cell line Koeffler et al. 1977. Science 200, have shown that the O-sialoglycoprotein cell surface antigens CD34 Civin et al. 1989. Leucocyte Typing IV, Oxford Univ. Press. CD43/leucosialin Killeen et al. 1987. EMBO J.; Pallant et al. 1989. PNAS, CD44/lyaluronic acid receptor Stamenkovic et al. 1989. Cell; Aruffo et al. 1990. Cell and CD45/leucocyte common antigen Thomas et al. 1989. Annu. REv. Immunol.; Pulido et al. 1989. J. Immunol. are all cleaved by the glycoprotease. Although the glycoprotease-sensitive structures contain some N-linked glycans they are all extensively glycosylated with O-linked carbohydrates. […]
# [4] = pH 7.4, read-out: Activity (% of enzyme activity in the absence of any inhibitor)
# Chain of P. haemolytica A1 glycoprotease (P36175 whole entry): as the sequence (P36175 whole entry, looked up) above
compound,measurement,setting,value
N[C@@H](CCC(=O)O)C(=O)O [glutamate],Inhibition of the glycoprotease by anions and acidic amino acids,[1],Some inhibitions
bovine insulin chain A,Hydrolysis of protein by active enzyme fractions,[2],did not hydrolyze
"c1cnc2c(c1)ccc1cccnc12 [1,10-phenanthroline]",Inhibition of the protease by prolonged treatment,[1]; prolonged treatment (24 h),inhibited
"CC(C)C[C@H](NP(=O)(O)O[C@H]1O[C@@H](C)[C@H](O)[C@@H](O)[C@H]1O)C(=O)N[C@@H](Cc1c[nH]c2ccccc12)C(=O)O [Phosphoramidon, N-(β-L-rhamnopyranosyl-oxyhydroxyphosphinyl)-L-leucyl-L-tryptophan]",Inhibition of the glycoprotease (in words),[1]; concentration not given,without significant effect
same,inhibition at 900 µM,[1]; [4],95%
[Zn+2] [Zn^2+],Restoration of protease activity by addition of divalent metal ion,[1],failed to restore
same,Increase of activity by addition of divalent metal ion,[1],failed to increase
O=C1O[C@H]([C@@H](O)CO)C(O)=C1O [Ascorbate],inhibition at 11400 µM,[1]; [4],60%
Cc1ccc(S(=O)(=O)NC(Cc2ccccc2)C(=O)CCl)cc1 (stereo not shown) [tosylphenylalanyl chloromethylketone],Inhibition of glycoprotease by conventional protease inhibitors,[1],No inhibition
CCN1C(=O)C=CC1=O [N-ethylmaleimide],Inhibition of glycoprotease by conventional protease inhibitors,[1],No inhibition
O=S(=O)(F)Cc1ccccc1 [phenylmethanesulfonyl-fluoride],Inhibition of glycoprotease by conventional protease inhibitors,[1],No inhibition
O=C(O)c1cc[c]([Hg][Cl])cc1 [p-chloromercuribenzoate],Inhibition of glycoprotease by conventional protease inhibitors,[1],No inhibition
[Mg+2] [Mg^2+],Restoration of protease activity by addition of divalent metal ion,[1],failed to restore
same,Increase of activity by addition of divalent metal ion,[1],failed to increase
Cc1ccc(S(=O)(=O)NC(CCCCN)C(=O)CCl)cc1 (stereo not shown) [tosyl-lysl chloromethylketone],Inhibition of glycoprotease by conventional protease inhibitors,[1],No inhibition
[Ca+2] [Ca^2+],Restoration of protease activity by addition of divalent metal ion,[1],failed to restore
same,Increase of activity by addition of divalent metal ion,[1],failed to increase
CD71/transferrin receptor: N-linked glycoprotein which lacks O-sialo-residues,Cleavage of cell surface antigen by the glycoprotease,[3],resistant
[Fe+2] [Fe^2+],Restoration of protease activity by addition of divalent metal ion,[1],failed to restore
same,Increase of activity by addition of divalent metal ion,[1],failed to increase
cytochrome c,Hydrolysis of protein by active enzyme fractions,[2],did not hydrolyze
insulin chain B,Hydrolysis of protein by active enzyme fractions,[2],did not hydrolyze
N[C@@H](CC(=O)O)C(=O)O [aspartate],Inhibition of the glycoprotease by anions and acidic amino acids,[1],Some inhibitions
O=C(O)c1cc[c]([Hg+])cc1.[OH-] [p-hydroxymercuribenzoate],Inhibition of glycoprotease by conventional protease inhibitors,[1],No inhibition
"CD44/lyaluronic acid receptor: O-sialoglycoprotein cell surface antigen, hyaluronate receptor",Cleavage of cell surface antigen by the glycoprotease,[3],cleaved

# Reference: patent US5543312A, “Pastuerella haemolytica glycoprotease gene and the purified enzyme” (priority 1991, dated 1996)
